Columns and labels:
human SGLT1 = biological target: T1, human SGLT1 (Homo sapiens, UniProt P13866); test: Cell-based assay for sodium-dependent glucose transport (14C-AMG uptake), CHO-K1 cells stably expressing human SGLT1; conditions: Na-dependent 14C-AMG uptake
T1 construct: expressed in transfected cells; host or cells: CHO-K1
T1 sequence (P13866 1-664): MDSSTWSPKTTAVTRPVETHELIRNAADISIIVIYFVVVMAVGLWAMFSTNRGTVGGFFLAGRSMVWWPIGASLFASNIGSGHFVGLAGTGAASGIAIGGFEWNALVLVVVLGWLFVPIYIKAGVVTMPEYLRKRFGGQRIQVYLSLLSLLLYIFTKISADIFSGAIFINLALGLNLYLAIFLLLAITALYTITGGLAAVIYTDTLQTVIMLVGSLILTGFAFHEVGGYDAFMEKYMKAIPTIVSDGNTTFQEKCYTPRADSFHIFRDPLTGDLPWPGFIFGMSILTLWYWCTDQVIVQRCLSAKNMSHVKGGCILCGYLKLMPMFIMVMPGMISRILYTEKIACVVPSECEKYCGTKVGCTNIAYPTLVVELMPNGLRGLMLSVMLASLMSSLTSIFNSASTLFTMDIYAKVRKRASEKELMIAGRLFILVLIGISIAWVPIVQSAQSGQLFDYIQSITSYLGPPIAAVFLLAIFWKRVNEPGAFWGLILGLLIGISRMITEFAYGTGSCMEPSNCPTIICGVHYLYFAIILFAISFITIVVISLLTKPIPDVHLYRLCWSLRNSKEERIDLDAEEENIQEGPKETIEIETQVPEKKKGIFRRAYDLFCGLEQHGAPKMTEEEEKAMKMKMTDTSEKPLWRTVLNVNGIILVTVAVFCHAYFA
Experimental: (§1) Cloning of the human SGLT1 and human SGLT2 cDNAs and construction of the mammalian expression vector: The human SGLT1 cDNA (Genbank M24847) was cloned from human small intestine. Human SGLT2 cDNA (Genbank M95549) was cloned from human kidney. Both full cDNAs were subcloned into pcDNA and sequenced to verify the integrity of the construct.
(§2) Generation of CHO-K1 cells stably expressing human SGLT1 or human SGLT2: Transfection of CHO-K1 cells was performed using DMRIE-C reagent (Life Technologies, Gaithersburg, Md.). Transfectants were then selected in the presence of the antibiotic G418 (Gibco-BRL, Grand Island, N.Y.) at 400 μg/ml. Individual clones were then characterized using the functional assay described below.
(§3) Cell-based assay for sodium-dependent glucose transport: Cell lines stably expressing human SGLT1 or SGLT2 were then used for functional analysis of Na+-dependent glucose uptake. Briefly, cells were plated at a density of 65,000 cells per well in a 96-well plate and allowed to grow for 48 hours. Cells were subsequently washed one time with Assay Buffer (50 mM HEPES pH 7.4, 20 mM Tris, 5 mM KCl, 1 mM MgCl2, 1 mM CaCl2 and 137 mM NaCl) and treated with compound in the absence or presence of NaCl for 15 minutes. Cells were then labeled with ^14C-α-methylglucopyranoside (AMG, Sigma, St. Louis, Mo.) a non-metabolizable glucose analog specific for sodium-dependent glucose transporters as previously described (Peng, H. and Lever J. E. Post-transcriptional regulation of Na^+/glucose cotransporter (SGLT1) gene expression in LLC-PK1 cells. J Biol Chem 1995; 270:20536-20542). After 2 hours the labelled cells were washed three times with ice-cold PBS. After aspiration, cells were solubilized using Microscint 20 (Packard, Meriden, Conn.) and Na-dependent ^14C-AMG uptake was quantified by measuring radioactivity.
(§4) Plates were counted in a TopCount (Packard, Meriden, Conn.). Results are reported as the % inhibition or IC50 value from a representative experiment. Variability for the functional assay was typically within 20%.

human SGLT2 = biological target: T2, human SGLT2 (Homo sapiens, UniProt P31639); test: Cell-based assay for sodium-dependent glucose transport (14C-AMG uptake), CHO-K1 cells stably expressing human SGLT2; conditions: Na-dependent 14C-AMG uptake; for IC50: read-out: CHOK-SGLT2 IC50; for inhibition at 10 µM: read-out: CHOK-SGLT2 % Inh at 10 uM
T2 construct: expressed in transfected cells; host or cells: CHO-K1
T2 sequence (P31639 1-672): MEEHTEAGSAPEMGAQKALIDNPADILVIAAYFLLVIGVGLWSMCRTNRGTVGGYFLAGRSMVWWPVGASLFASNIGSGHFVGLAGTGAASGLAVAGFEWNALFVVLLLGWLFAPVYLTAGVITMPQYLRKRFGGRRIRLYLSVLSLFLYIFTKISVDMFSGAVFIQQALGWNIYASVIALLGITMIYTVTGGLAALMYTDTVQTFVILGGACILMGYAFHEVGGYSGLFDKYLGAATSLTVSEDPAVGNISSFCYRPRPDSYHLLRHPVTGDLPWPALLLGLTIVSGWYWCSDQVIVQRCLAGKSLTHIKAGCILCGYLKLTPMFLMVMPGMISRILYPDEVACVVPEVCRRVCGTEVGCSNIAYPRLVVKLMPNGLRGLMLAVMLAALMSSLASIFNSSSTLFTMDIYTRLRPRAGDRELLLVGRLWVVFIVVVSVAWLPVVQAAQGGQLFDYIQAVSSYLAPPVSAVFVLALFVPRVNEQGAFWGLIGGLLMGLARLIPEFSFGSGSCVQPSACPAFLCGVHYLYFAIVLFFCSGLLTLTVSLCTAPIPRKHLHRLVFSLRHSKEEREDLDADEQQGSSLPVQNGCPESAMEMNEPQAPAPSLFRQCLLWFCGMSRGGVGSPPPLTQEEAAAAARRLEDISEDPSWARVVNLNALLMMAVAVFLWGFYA
Experimental: as §1, §2, §3, §4

## CCc1ccc(Cc2c[nH]c3ccc([C@@H]4O[C@H](CO)[C@@H](O)[C@H](O)[C@H]4O)cc23)cc1 [Example 1, 3-(4-Ethylbenzyl)-5-(β-D-glucopyranosyl)-1H-indole]
Human SGLT1
  CHOK-SGLT1 IC50 (uM): inactive
Human SGLT2
  IC50: 132 ± 24 nM

## COc1ccc(Cc2c[nH]c3ccc([C@@H]4O[C@H](CO)[C@@H](O)[C@H](O)[C@H]4O)cc23)cc1 [Example 2, 5-(β-D-Glucopyranosyl)-3-(4-methoxybenzyl)-1H-indole]
Human SGLT1
  CHOK-SGLT1 IC50 (uM): inactive
Human SGLT2
  IC50: 1390 ± 67 nM

## COc1ccc(CCc2c[nH]c3ccc([C@@H]4O[C@H](CO)[C@@H](O)[C@H](O)[C@H]4O)cc23)cc1 [Example 3, 5-(β-D-Glucopyranosyl)-3-[2-(4-methoxyphenyl)-ethyl]-1H-indole]
Human SGLT1
  CHOK-SGLT1 IC50 (uM): inactive
Human SGLT2
  inhibition at 10 µM: 60%

## CCc1ccc(Cc2c[nH]c3cccc([C@@H]4O[C@H](CO)[C@@H](O)[C@H](O)[C@H]4O)c23)cc1 [Example 4, 3-(4-Ethylbenzyl)-4-(β-D-glucopyranosyl)-1H-indole]
Human SGLT1
  CHOK-SGLT1 IC50 (uM): inactive
Human SGLT2
  inhibition at 10 µM: 12%
